The record followed here is patent US11897862B2 (Gilead Sciences, Inc., priority 2022, dated 2024).

One test has as its target IKZF2 (Homo sapiens, UniProt Q96SW2+Q9UKS7). In words: HEK293 HiBiT in vitro degradation of IKZF2. Format: cell-based. Details: expressed in transfected cells. To be noted: for Dmax: HEK293, HEK293 HiBiT; for Dmax / IKZF2 Dmax: maximum degradation at the highest concentration tested; for DC50 / IKZF2 Dmax: HEK293 HiBiT; for DC50: 18-24 hr incubation, normalized to DMSO control, read-out: IKZF2 EC50. Summed up:
(§1)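 Read-out: Nano-Glo lytic HiBiT luminescence after 18-24 h compound exposure at 37 °C, fitted to EC50 and Dmax. Cells were Flp-In T-REx HEK293 expressing linker-HiBiT fused to the C-terminus of each target, doxycycline-induced ([…] final) overnight beforehand.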
A general note: The HiBiT peptide binds its large partner to form an active luciferase.

The target in the next test is T1, IKZF1 (Homo sapiens, UniProt Q13422+Q96SW2).
T1 construct: expressed in transfected cells
Kind of test: HEK293 HiBiT in vitro degradation of IKZF1. Format: cell-based. To be noted: for Dmax: HEK293, HEK293 HiBiT; for Dmax / IKZF1 Dmax: maximum degradation at the highest concentration tested; for DC50 / IKZF1 Dmax: HEK293 HiBiT; for DC50: 18-24 hr incubation, normalized to DMSO control, read-out: IKZF1 EC50. The essentials: as §1

The structures appear in SMILES notation.

IKZF2, sequence (Q9UKS7 1-500 isoform Q9UKS7-2): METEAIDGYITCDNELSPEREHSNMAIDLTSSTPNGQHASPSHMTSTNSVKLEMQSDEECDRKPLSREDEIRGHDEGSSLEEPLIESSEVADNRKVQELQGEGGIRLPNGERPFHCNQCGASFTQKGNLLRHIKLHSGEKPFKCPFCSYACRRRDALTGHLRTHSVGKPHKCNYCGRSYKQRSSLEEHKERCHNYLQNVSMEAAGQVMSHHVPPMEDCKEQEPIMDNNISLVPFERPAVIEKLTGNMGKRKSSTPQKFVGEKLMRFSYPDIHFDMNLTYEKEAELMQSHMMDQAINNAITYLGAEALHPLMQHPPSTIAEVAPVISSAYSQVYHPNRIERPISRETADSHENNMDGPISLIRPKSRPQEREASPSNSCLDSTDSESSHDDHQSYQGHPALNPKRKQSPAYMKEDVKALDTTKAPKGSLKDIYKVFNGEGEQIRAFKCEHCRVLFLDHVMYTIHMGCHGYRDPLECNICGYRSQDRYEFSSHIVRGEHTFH
IKZF2, sequence (Q96SW2 whole entry, the tested form may be a part): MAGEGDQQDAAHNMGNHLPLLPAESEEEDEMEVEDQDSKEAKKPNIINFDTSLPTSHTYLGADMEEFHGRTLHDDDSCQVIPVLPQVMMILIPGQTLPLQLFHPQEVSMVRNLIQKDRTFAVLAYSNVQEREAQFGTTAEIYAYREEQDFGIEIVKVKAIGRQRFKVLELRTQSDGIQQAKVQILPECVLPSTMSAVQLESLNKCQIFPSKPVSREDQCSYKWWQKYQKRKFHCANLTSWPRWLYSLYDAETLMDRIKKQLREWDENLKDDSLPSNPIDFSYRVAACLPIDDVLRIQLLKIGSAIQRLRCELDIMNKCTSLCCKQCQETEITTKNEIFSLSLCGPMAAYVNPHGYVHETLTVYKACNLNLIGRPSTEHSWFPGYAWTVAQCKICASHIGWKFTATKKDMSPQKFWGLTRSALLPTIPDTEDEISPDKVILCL
IKZF2, sequence (Q16531 whole entry partner, the tested form may be a part): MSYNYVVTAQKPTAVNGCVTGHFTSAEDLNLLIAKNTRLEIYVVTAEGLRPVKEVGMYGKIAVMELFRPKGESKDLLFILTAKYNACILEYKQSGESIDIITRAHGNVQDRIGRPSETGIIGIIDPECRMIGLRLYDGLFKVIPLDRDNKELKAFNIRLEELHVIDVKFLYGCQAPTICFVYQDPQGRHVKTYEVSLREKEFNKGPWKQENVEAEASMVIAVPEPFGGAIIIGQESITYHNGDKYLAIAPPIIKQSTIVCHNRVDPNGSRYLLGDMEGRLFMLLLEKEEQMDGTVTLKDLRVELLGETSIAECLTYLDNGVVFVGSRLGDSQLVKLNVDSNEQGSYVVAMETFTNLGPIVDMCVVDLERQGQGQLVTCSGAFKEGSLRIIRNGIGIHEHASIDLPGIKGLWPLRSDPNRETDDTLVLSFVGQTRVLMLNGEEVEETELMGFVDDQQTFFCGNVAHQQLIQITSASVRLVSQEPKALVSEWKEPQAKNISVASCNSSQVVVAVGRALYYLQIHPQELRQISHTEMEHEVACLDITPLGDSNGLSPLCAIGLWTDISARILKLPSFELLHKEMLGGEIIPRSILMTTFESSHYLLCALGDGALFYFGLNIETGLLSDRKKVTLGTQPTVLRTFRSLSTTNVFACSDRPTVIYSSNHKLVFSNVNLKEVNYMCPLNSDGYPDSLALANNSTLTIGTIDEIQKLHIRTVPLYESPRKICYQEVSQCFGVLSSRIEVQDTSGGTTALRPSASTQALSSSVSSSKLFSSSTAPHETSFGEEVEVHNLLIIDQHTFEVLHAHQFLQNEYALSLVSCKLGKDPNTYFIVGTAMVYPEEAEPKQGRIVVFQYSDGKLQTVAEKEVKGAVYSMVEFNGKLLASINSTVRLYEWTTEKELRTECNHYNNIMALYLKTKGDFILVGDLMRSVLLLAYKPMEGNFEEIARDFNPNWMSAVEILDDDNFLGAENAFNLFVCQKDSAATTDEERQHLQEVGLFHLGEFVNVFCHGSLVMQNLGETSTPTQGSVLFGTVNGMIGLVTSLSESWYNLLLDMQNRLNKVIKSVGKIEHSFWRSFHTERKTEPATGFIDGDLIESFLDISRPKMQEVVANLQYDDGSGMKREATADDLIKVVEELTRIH
T1 sequence (Q13422 whole entry): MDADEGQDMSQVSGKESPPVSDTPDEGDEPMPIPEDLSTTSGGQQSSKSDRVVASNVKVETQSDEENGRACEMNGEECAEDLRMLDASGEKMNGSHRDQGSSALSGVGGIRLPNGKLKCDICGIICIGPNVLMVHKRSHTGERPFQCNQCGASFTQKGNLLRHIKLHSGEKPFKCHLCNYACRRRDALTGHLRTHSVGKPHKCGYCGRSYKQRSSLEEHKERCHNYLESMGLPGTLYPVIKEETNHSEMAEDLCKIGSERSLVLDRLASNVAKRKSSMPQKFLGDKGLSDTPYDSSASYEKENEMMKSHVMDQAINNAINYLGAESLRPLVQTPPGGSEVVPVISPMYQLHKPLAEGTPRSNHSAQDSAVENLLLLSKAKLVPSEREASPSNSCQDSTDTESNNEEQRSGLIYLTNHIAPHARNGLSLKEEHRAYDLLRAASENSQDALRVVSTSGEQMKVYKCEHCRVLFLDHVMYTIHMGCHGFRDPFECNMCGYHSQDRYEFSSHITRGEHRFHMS
T1 sequence (Q96SW2 whole entry): as the sequence (Q96SW2 whole entry, the tested form may be a part) above
T1 sequence (Q16531 whole entry partner): as the sequence (Q16531 whole entry partner, the tested form may be a part) above

One may read the Dmax as the largest share of the target that was removed. High values mean deep degradation, low ones shallow degradation. In the case of `O=C1CCC(N2Cc3cc(C[C@H]4CCCC[C@@H]4NC4CCCOCC4)ccc3C2=O)C(=O)N1` (stereo partly shown) [Example 197], the maximal degradation (Dmax) on IKZF2 stood at 97%; on IKZF1, 22%. Further, the DC50 is 5 nM on IKZF2 and 68 nM on IKZF1.

Take `CC1(C)OCCC1N[C@H]1CCCC[C@@H]1Cc1ccc2c(c1)CN(C1CCC(=O)NC1=O)C2=O` (single isomer, unassigned) [Example 274]: at IKZF2, the DC50 came to 12 nM and the “IKZF2 Dmax” value is on record as 97%. Also, on IKZF1, the Dmax amounted to 35% and the DC50 amounted to 102 nM.

Turning to `O=C1CCC(N2Cc3c(ccc(C[C@H]4CCCC[C@@H]4NC4CCOC4)c3F)C2=O)C(=O)N1` (stereo partly shown) [Example 190], on IKZF2, the DC50 was 2 nM and the “IKZF2 Dmax” value is recorded as 97%. On IKZF1, the DC50 amounted to 57 nM and the “IKZF1 Dmax” value is 44%.

With `CC(N[C@H]1CCCO[C@@H]1Cc1ccc2c(c1F)CN(C1CCC(=O)NC1=O)C2=O)C1COC1` (stereo partly shown) [Example 318], at IKZF2, the Dmax was determined as 96% and the DC50 came out at 20 nM. In addition, the DC50 at IKZF1 is over 1000 nM.

As to `CN(C1CCC(F)(F)CC1)[C@H]1CCCC[C@@H]1Cc1ccc2c(c1)CN(C1CCC(=O)NC1=O)C2=O` (stereo partly drawn) [Example 123, 3-(5-(((1R,2S)-2-((4,4-difluorocyclohexyl)(methyl)amino)cyclohexyl)methyl)-1-oxoisoindolin-2-yl)piperidine-2,6-dione], on IKZF2, the Dmax was determined as 88% and the DC50 turned out to be 26 nM. Moreover, the DC50 on IKZF1 was over 1000 nM.

As to `O=C1CCC(N2Cc3cc(C[C@H]4OCCC[C@@H]4NC4CCC(F)(F)CC4)ccc3C2=O)C(=O)N1` (stereo partly drawn) [Example 92, 3-(5-(((2R,3S)-3-((4,4-difluorocyclohexyl)amino)tetrahydro-2H-pyran-2-yl)methyl)-1-oxoisoindolin-2-yl)piperidine-2,6-dione], at IKZF2, the Dmax came to 82% and the DC50 was determined as 44 nM. Besides, the DC50 at IKZF1 was over 1000 nM.

With `CCCCN[C@H]1CCCC[C@@H]1Cc1ccc2c(c1)CN(C1CCC(=O)NC1=O)C2=O` (stereo partly shown) [Example 128], the figures for the greatest degradation seen (Dmax) at IKZF2 and at IKZF1 were 98% and 19%, respectively. Besides, the DC50 turned out to be 18 nM at IKZF2 and 94 nM on IKZF1.

For the molecule `O=C1CCC(N2Cc3cc(C[C@H]4CCCC[C@@H]4NC4C5CCCC4CC5)ccc3C2=O)C(=O)N1` (stereo partly shown) [Example 199], on IKZF2, the Dmax was determined as 95% and the DC50 turned out to be 10 nM. Also, the DC50 on IKZF1 was over 10000 nM.

As to `O=C1CCC(N2Cc3cc(C[C@H]4CCCC[C@@H]4NC4CCC(c5ccccn5)CC4)ccc3C2=O)C(=O)N1` (stereo partly shown) [Example 379], at IKZF2, the Dmax turned out to be 96% and the DC50 was 3 nM. Moreover, on IKZF1, the Dmax was 62% and the DC50 was determined as 44 nM.

Take `O=C1CCC(N2Cc3cc(C[C@H]4CCCC[C@@H]4NC4C[C@H]5COC[C@H]5C4)ccc3C2=O)C(=O)N1` (stereo partly shown) [Example 198]: on IKZF2, the greatest degradation seen (Dmax) turned out to be 97% and the DC50 stood at 16 nM. The DC50 on IKZF1 was over 1000 nM.

As for `CC(N[C@H]1CC(F)(F)CC[C@@H]1Cc1ccc2c(c1)CN(C1CCC(=O)NC1=O)C2=O)C1CCOCC1` (stereo partly shown) [Example 349], at IKZF2, the Dmax was 92% and the DC50 came to 11 nM. On IKZF1, the Dmax turned out to be 42% and the DC50 came to 89 nM.

On to `O=C1CCC(N2Cc3cc(C[C@H]4OCCC[C@@H]4NC4CCCCC4)ccc3C2=O)C(=O)N1` (stereo partly shown) [Example 179], for which the results for the DC50 on IKZF2 and on IKZF1 were 16 nM and over 10000 nM, respectively. In addition, at IKZF2, the “IKZF2 Dmax” value was found to be 88%.

Turning to `O=C1CCC(N2Cc3cc(C[C@H]4CCCC[C@@H]4NC4CCC45COC5)ccc3C2=O)C(=O)N1` (single isomer, unassigned) [Example 286], the greatest degradation seen (Dmax) on IKZF2 amounted to 96%; on IKZF1, 33%. The DC50 at IKZF2 is 27 nM; at IKZF1, 223 nM.

For the molecule `CC(N[C@H]1CCCC[C@@H]1Cc1ccc2c(c1)CN(C1CCC(=O)NC1=O)C2=O)C1CCCC1` (stereo partly shown) [Example 202], on IKZF2, the DC50 is 8 nM and the “IKZF2 Dmax” value amounted to 95%. Further, the DC50 on IKZF1 was over 1000 nM.

In the case of `CC(C)OC1CCC(N[C@H]2CCCO[C@@H]2Cc2ccc3c(c2F)CN(C2CCC(=O)NC2=O)C3=O)CC1` (single isomer, unassigned) [Example 284], at IKZF2, the Dmax is 97% and the DC50 is 5 nM. Besides, the DC50 at IKZF1 is over 1000 nM.

On IKZF2, `COc1ccccc1CCN[C@H]1CCCC[C@@H]1Cc1ccc2c(c1)CN(C1CCC(=O)NC1=O)C2=O` (stereo partly shown) [Example 76] had a Dmax of 84%. Besides, the DC50 on IKZF2 is 34 nM; at IKZF1 it was over 1000 nM.

As to `O=C1CCC(N2Cc3cc(C[C@H]4CCCC[C@@H]4NCc4ncc(F)cc4F)ccc3C2=O)C(=O)N1` (stereo partly drawn) [Example 44, 3-(5-(((1R,2S)-2-(((3,5-difluoropyridin-2-yl)methyl)amino)cyclohexyl)methyl)-1-oxoisoindolin-2-yl)piperidine-2,6-dione], the Dmax at IKZF2 came out at 60%. Further, the DC50 on IKZF2 is 67 nM; on IKZF1 it was over 1000 nM.

For `C=C1CC[C@H](N)[C@@H](Cc2ccc3c(c2)CN(C2CCC(=O)NC2=O)C3=O)C1` (stereo partly drawn) [Example 381, 3-(5-(((1R,2S)-2-amino-5-methylenecyclohexyl)methyl)-1-oxoisoindolin-2-yl)piperidine-2,6-dione], at IKZF2, the Dmax worked out at 65% and the DC50 was 207 nM. Besides, on IKZF1, the greatest degradation seen (Dmax) stood at 29% and the DC50 turned out to be 108 nM.

In the case of `[2H]C1(N[C@H]2CCCC[C@@H]2Cc2ccc3c(c2)CN(C2CCC(=O)NC2=O)C3=O)CCCCC1` (stereo partly shown) [Example 215], on IKZF2, the Dmax turned out to be 97% and the DC50 worked out at 2 nM. On IKZF1, the maximal degradation (Dmax) turned out to be 29% and the DC50 was determined as 174 nM.

Turning to `O=C1CCC(N2Cc3cc(C[C@H]4CCCC[C@@H]4NCc4ccc(C(F)(F)F)cc4)ccc3C2=O)C(=O)N1` (stereo partly drawn) [Example 16, 3-(1-oxo-5-(((1R,2S)-2-((4-(trifluoromethyl)benzyl)amino)cyclohexyl)methyl)isoindolin-2-yl)piperidine-2,6-dione], at IKZF2, the Dmax stood at 87% and the DC50 is 42 nM. The DC50 on IKZF1 was over 1000 nM.

For `Cn1cc(CN[C@H]2CCCC[C@@H]2Cc2ccc3c(c2)CN(C2CCC(=O)NC2=O)C3=O)cn1` (stereo partly drawn) [Example 42, 3-(5-(((1R,2S)-2-(((1-methyl-1H-pyrazol-4-yl)methyl)amino)cyclohexyl)methyl)-1-oxoisoindolin-2-yl)piperidine-2,6-dione], at IKZF2, the Dmax came to 78% and the DC50 turned out to be 126 nM. Also, on IKZF1, the DC50 is over 1000 nM.

`O=C1CCC(N2Cc3cc(C[C@H]4CCCC[C@@H]4NC4CCC5(CCO5)CC4)ccc3C2=O)C(=O)N1` (stereo partly shown) [Example 171]: on IKZF2, the Dmax was determined as 98% and the DC50 was 26 nM. On IKZF1, the greatest degradation seen (Dmax) turned out to be 37% and the DC50 is 198 nM.

`O=C1CCC(N2Cc3c(ccc(C[C@H]4OCCC[C@@H]4NC4CCC5(CC4)CC5(F)F)c3F)C2=O)C(=O)N1` (single isomer, unassigned) [Example 365]: on IKZF2, the DC50 came out at 3 nM and the “IKZF2 Dmax” value is recorded as 95%. For the same molecule, on IKZF1, the DC50 was found to be 122 nM and the “IKZF1 Dmax” value amounted to 43%.

On IKZF2, `O=C1CCC(N2Cc3cc(C[C@H]4CCCC[C@@H]4NC4COc5ccccc5C4)ccc3C2=O)C(=O)N1` (stereo partly shown) [Example 143] had a Dmax of 94%. In addition, the DC50 was 33 nM on IKZF2 and over 1000 nM on IKZF1.

For the molecule `O=C1CCC(N2Cc3cc(C[C@H]4CCCC[C@@H]4NC4CCC(C(F)(F)F)CC4)ccc3C2=O)C(=O)N1` (single isomer, unassigned) [Example 121], on IKZF2, the Dmax is 97% and the DC50 amounted to 3 nM. Besides, at IKZF1, the Dmax turned out to be 26% and the DC50 is 68 nM.

In the case of `O=C1CCC(N2Cc3cc(C[C@H]4CC[C@@H](F)C[C@@H]4NC4CCCCC4)ccc3C2=O)C(=O)N1` (stereo partly shown) [Example 355], the Dmax on IKZF2 turned out to be 91%. In addition, the DC50 on IKZF2 is 5 nM; at IKZF1, over 1000 nM.

As for `CC(C)(CCN[C@H]1CCCC[C@@H]1Cc1ccc2c(c1)CN(C1CCC(=O)NC1=O)C2=O)C(F)(F)F` (stereo partly shown) [Example 182], on IKZF2, the Dmax is 94% and the DC50 is 9 nM. On IKZF1, the maximal degradation (Dmax) turned out to be 34% and the DC50 was determined as 43 nM.

Consider `CC(C)OC1CCC(N[C@H]2CCCC[C@@H]2Cc2ccc3c(c2)CN(C2CCC(=O)NC2=O)C3=O)CC1` (single isomer, unassigned) [Example 167], for which, at IKZF2, the Dmax is 97% and the DC50 came to 2 nM. In addition, at IKZF1, the Dmax was 36% and the DC50 turned out to be 77 nM.

In the case of `O=C1CCC(N2Cc3c(ccc(C[C@H]4CCCC[C@@H]4NC4CC5CCCC5C4)c3F)C2=O)C(=O)N1` (stereo partly shown) [Example 141], the Dmax turned out to be 98% at IKZF2 and 53% at IKZF1. The DC50 came out at 2 nM on IKZF2 and 58 nM at IKZF1.

Take `[2H]C1(N[C@H]2CCCC[C@@H]2Cc2ccc3c(c2F)CN(C2CCC(=O)NC2=O)C3=O)CCCC1` (stereo partly shown) [Example 212]: the maximal degradation (Dmax) at IKZF2 was 98%; on IKZF1 it was 42%. Also, the DC50 came to 1 nM at IKZF2 and 45 nM on IKZF1.

With `O=C1CCC(N2Cc3cc(C[C@H]4CCCC[C@@H]4N[C@@H]4CCC(F)(F)C4)ccc3C2=O)C(=O)N1` (relative stereo) [Example 302, 3-(5-(((1R,2S)-rel-2-(((R)-3,3-difluorocyclopentyl)amino)cyclohexyl)methyl)-1-oxoisoindolin-2-yl)piperidine-2,6-dione], at IKZF2, the maximal degradation (Dmax) is 89% and the DC50 was determined as 15 nM. Moreover, the DC50 on IKZF1 is over 1000 nM.

At IKZF2, `CC1(C)OCC(N[C@H]2CCCC[C@@H]2Cc2ccc3c(c2)CN(C2CCC(=O)NC2=O)C3=O)CO1` (stereo partly shown) [Example 161] came in with a Dmax of 88%. For the same molecule, the DC50 on IKZF2 was 95 nM; at IKZF1 it was over 1000 nM.
